Reference: patent US9708336B2, “Metallo-beta-lactamase inhibitors” (priority 2014, dated 2017)
Read-outs that look alike come from different tables or passages of the source.

Key:
VIM-1 = VIM-1 (Pseudomonas aeruginosa (strain ATCC 15692 / DSM 22644 / CIP 104116 / JCM 14847 / LMG 12228 / 1C / PRS 101 / PAO1), UniProt A0A0F7KYQ8); assay: Enzyme activity: determination of IC50, fluorescence assay with CCF2-FA substrate (VIM-1); format: biochemical
IMP-1 = IMP-1 (Serratia marcescens, UniProt P52699); assay: biochemical; format: biochemical
Sequence of IMP-1 (P52699 whole entry, looked up): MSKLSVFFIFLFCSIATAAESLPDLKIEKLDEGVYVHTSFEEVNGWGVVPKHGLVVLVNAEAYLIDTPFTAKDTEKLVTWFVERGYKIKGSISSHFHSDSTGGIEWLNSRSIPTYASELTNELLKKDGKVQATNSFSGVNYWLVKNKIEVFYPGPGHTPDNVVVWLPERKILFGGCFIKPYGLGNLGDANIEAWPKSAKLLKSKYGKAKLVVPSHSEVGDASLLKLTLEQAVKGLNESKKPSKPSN

[1] = tested on: Escherichia coli expressing NDM-1 (CLB30005); assay: Antibiotic potentiation activity: synergistic concentration (MITC95) with imipenem, OD600 growth; format: cell-based; conditions: for Escherichia coli expressing NDM-1 (CLB 30005) MITC95: concentration giving 95% inhibition of bacterial growth; for Escherichia coli MITC95: Escherichia coli expressing NDM-1 (CLB30005), 95% growth inhibition
In short: (§1)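 Inoculum: saline suspension of overnight colonies, 1:100 into 1.1× CAMHB. Imipenem 4 μg/ml final (alt. 1 μg/ml) + compound; 35 °C, 22–24 h; absorbance read-out.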

[2] = tested on: Klebsiella pneumoniae expressing VIM-1 (IHMA599644); assay: as above; format: cell-based; conditions: for Klebsiella pneumoniae expressing VIM-1 (IHMA 599644) MITC95: concentration giving 95% inhibition of bacterial growth; for Klebsiella pneumoniae MITC95: Klebsiella pneumoniae expressing VIM-1 (IHMA599644), 95% growth inhibition
In short: as §1

[3] = tested on: Serratia marcescens expressing IMP-1 (CL5741); assay: as above; format: cell-based; conditions: for Serratia marcescens expressing IMP-1 (CL5741) MITC95: concentration giving 95% inhibition of bacterial growth; for Serratia marcescens MITC95: Serratia marcescens expressing IMP-1 (CL5741), 95% growth inhibition
In short: as §1

NDM-1 = NDM-1 (Klebsiella pneumoniae, UniProt C7C422); assay: biochemical; format: biochemical; conditions: read-out: NDM-1 IC50
Sequence of NDM-1 (C7C422 whole entry, looked up, species assumed): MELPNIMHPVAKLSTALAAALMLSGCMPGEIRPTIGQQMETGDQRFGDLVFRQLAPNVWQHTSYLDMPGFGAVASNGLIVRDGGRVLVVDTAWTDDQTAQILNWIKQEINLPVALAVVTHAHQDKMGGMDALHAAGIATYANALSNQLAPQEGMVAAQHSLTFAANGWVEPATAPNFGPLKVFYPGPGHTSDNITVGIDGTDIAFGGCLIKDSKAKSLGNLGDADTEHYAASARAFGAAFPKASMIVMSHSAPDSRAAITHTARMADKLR

[4] = fluorescence assay with CCF2-FA substrate, read-out: VIM-1 IC50
[5] = fluorescence assay with CCF2-FA substrate, read-out: IMP-1 IC50
[6] = fluorescence assay with CCF2-FA substrate
[7] = VIM-1 enzyme, CCF2-FA fluorescence assay, read-out: VIM-1 IC50
[8] = IMP-1 enzyme, CCF2-FA fluorescence assay, read-out: IMP-1 IC50
[9] = NDM-1 enzyme, CCF2-FA fluorescence assay
[10] = VIM-1 IC50, VIM-1 enzyme, CCF2-FA fluorescence assay

Row | Structure (SMILES) | IC50 (VIM-1; [4]) | IC50 (IMP-1; [5]) | Escherichia coli expressing NDM-1 (CLB 30005) MITC95 [1] | Klebsiella pneumoniae expressing VIM-1 (IHMA 599644) MITC95 [2] | Serratia marcescens expressing IMP-1 (CL5741) MITC95 [3] | IC50 (NDM-1; [6]) | IC50 (VIM-1; [7]) | IC50 (IMP-1; [8]) | Escherichia coli MITC95 [1] | Klebsiella pneumoniae MITC95 [2] | Serratia marcescens MITC95 [3] | IC50 (NDM-1; [9]) | IC50 (VIM-1; [10]) | IC50 (IMP-1) | IC50 (VIM-1; VIM-1 IC50, fluorescence assay with CCF2-FA substrate)
1 | N#CC1CC=C(c2cccc(S(N)(=O)=O)c2-c2nn[nH]n2)CC1 (stereo not drawn) [Example 64, 3-(4-cyanocyclohex-1-en-1-yl)-2-(2H-tetrazol-5-yl)benzenesulfonamide] | 588 nM | 248 nM | 1.953 µM | 200 µM | 50 µM | 13.4 nM | – | – | – | – | – | – | – | – | –
2 | NS(=O)(=O)c1cccc(-c2ccc(C3CCNC3=O)cc2)c1-c1nnn[nH]1 (stereo not drawn) [Example 27, 4′-(2-oxopyrrolidin-3-yl)-2-(1H-tetrazol-5-yl)biphenyl-3-sulfonamide] | 77.1 nM | 13.1 nM | 3.125 µM | 200 µM | 3.125 µM | 2.23 nM | – | – | – | – | – | – | – | – | –
3 | NS(=O)(=O)c1c(Br)ccc(-c2ccc(C3CCNCC3)cc2)c1-c1nnn[nH]1 [Example 259, 4-Bromo-4′-(piperidin-4-yl)-2-(1H-tetrazol-5-yl)-[1,1′-biphenyl]-3-sulfonamide] | – | – | – | – | – | – | 3.1 nM | 10.1 nM | 1.584 µM | 3.125 µM | 1 µM | 11 nM | – | – | –
4 | NS(=O)(=O)c1cccc(-c2cccnc2)c1-c1nn[nH]n1 [Example 19, 3-pyridin-3-yl-2-(2H-tetrazol-5-yl)benzenesulfonamide] | 269 nM | 1780 nM | 0.3906 µM | 50 µM | 50 µM | 24.5 nM | – | – | – | – | – | – | – | – | –
5 | NS(=O)(=O)c1cccc(-c2cnn3c2CCCC3)c1-c1nn[nH]n1 [Example 107, 3-(4,5,6,7-tetrahydropyrazolo[1,5-a]pyridin-3-yl)-2-(2H-tetrazol-5-yl)benzenesulfonamide] | 194 nM | 365 nM | 3.906 µM | 200 µM | 15.63 µM | 10 nM | – | – | – | – | – | – | – | – | –
6 | NS(=O)(=O)c1nccc(-c2ccc3ncccc3c2)c1-c1nn[nH]n1 [Example 200, 4-(quinolin-6-yl)-3-(2H-tetrazol-5-yl)pyridine-2-sulfonamide] | 35.6 nM | 963 nM | 2.083 µM | 50 µM | 75 µM | 30.2 nM | – | – | – | – | – | – | – | – | –
7 | NS(=O)(=O)c1cccc(C#Cc2cccnc2)c1-c1nn[nH]n1 [Example 147, 3-(pyridin-3-ylethynyl)-2-(2H-tetrazol-5-yl)benzenesulfonamide] | 1100 nM | 103 nM | 3.125 µM | >200 µM | 18.75 µM | 16.4 nM | – | – | – | – | – | – | – | – | –
8 | CN(C)Cc1ccc(-c2cccc(S(N)(=O)=O)c2-c2nnn[nH]2)cc1 [Example 327, 4′-((Dimethylamino)methyl)-2-(1H-tetrazol-5-yl)-[1,1′-biphenyl]-3-sulfonamide] | – | – | – | – | – | – | – | 534 nM | 0.7813 µM | 100 µM | 12.5 µM | 37.7 nM | 216 nM | – | –
9 | NS(=O)(=O)c1cccc(C2=CCCOC2)c1-c1nn[nH]n1 [Example 63, 3-(5,6-dihydro-2H-pyran-3-yl)-2-(2H-tetrazol-5-yl)benzenesulfonamide] | 1320 nM | 1560 nM | 0.7813 µM | 100 µM | 50 µM | 48.9 nM | – | – | – | – | – | – | – | – | –
10 | C[C@H]1NC(=O)O[C@H]1c1ccc(-c2ccnc(S(N)(=O)=O)c2-c2nnn[nH]2)cc1 (racemic) [Example 191, (±)-4-(4-(cis-4-Methyl-2-oxooxazolidin-5-yl)phenyl)-3-(1H-tetrazol-5-yl)pyridine-2-sulfonamide] | 45.9 nM | – | 9.375 µM | 75 µM | 15.63 µM | 7.75 nM | – | – | – | – | – | – | – | 76 nM | –
11 | NS(=O)(=O)c1ccc(-c2cccc(S(N)(=O)=O)c2-c2nn[nH]n2)cc1 [Example 61, 2-(2H-tetrazol-5-yl)biphenyl-3,4′-disulfonamide] | – | 58 nM | 0.5859 µM | 25 µM | 6.25 µM | 6.34 nM | – | – | – | – | – | – | – | – | 62 nM
12 | Cn1ccc(-c2cccc(S(N)(=O)=O)c2-c2nn[nH]n2)n1 [Example 97, 3-(1-methyl-1H-pyrazol-3-yl)-2-(2H-tetrazol-5-yl)benzenesulfonamide] | 1620 nM | 1570 nM | 0.5859 µM | 200 µM | 18.75 µM | 71.1 nM | – | – | – | – | – | – | – | – | –
13 | NS(=O)(=O)c1cccc(C#CCC2CNCCO2)c1-c1nn[nH]n1 (stereo not drawn) [Example 145, 3-(3-morpholin-2-ylprop-1-yn-1-yl)-2-(2H-tetrazol-5-yl)benzenesulfonamide] | 6410 nM | 2410 nM | 0.7813 µM | >200 µM | 75 µM | 191 nM | – | – | – | – | – | – | – | – | –
14 | NS(=O)(=O)c1cccc(-c2cnc(N3CCNCC3)nc2)c1-c1nn[nH]n1 [Example 320, 3-(2-(Piperazin-1-yl)pyrimidin-5-yl)-2-(2H-tetrazol-5-yl)benzenesulfonamide] | – | – | – | – | – | – | – | 294 nM | 0.6836 µM | 6.25 µM | 9.375 µM | 14.4 nM | 35.9 nM | – | –
15 | NC(=O)c1ccc(-c2ccnc(S(N)(=O)=O)c2-c2nnn[nH]2)cc1 [Example 184, 4-(2-Sulfamoyl-3-(1H-tetrazol-5-yl)pyridin-4-yl)benzamide] | 164 nM | 602 nM | 0.5859 µM | 25 µM | 37.5 µM | 66.9 nM | – | – | – | – | – | – | – | – | –
16 | NS(=O)(=O)c1cccc(-c2ccc(CC3OC(=O)NC3=O)cc2)c1-c1nn[nH]n1 (stereo not drawn) [Example 76, 4′-[(2,4-dioxo-1,3-oxazolidin-5-yl)methyl]-2-(2H-tetrazol-5-yl)biphenyl-3-sulfonamide] | 244 nM | 42.7 nM | 6.25 µM | >200 µM | 6.25 µM | 17.1 nM | – | – | – | – | – | – | – | – | –
17 | NC(=O)Cc1ccc(-c2cccc(S(N)(=O)=O)c2-c2nnn[nH]2)cc1 [Example 303, 2-(3′-sulfamoyl-2′-(1H-tetrazol-5-yl)-[1,1′-biphenyl]-4-yl)acetamide] | – | – | – | – | – | – | 44.6 nM | 59 nM | 0.9766 µM | 18.75 µM | 2.344 µM | 5.06 nM | – | – | –
18 | NS(=O)(=O)c1cccc(C(F)(F)F)c1-c1nnn[nH]1 [Example 256, 2-(1H-Tetrazol-5-yl)-3-(trifluoromethyl)benzenesulfonamide] | – | – | – | – | – | – | 8440 nM | 6260 nM | 0.7813 µM | >200 µM | 100 µM | 230 nM | – | – | –
19 | NS(=O)(=O)c1cccc(-c2ccco2)c1-c1nn[nH]n1 [Example 41, 3-furan-2-yl-2-(2H-tetrazol-5-yl)benzenesulfonamide] | 1150 nM | 247 nM | 0.3906 µM | 200 µM | 9.375 µM | 30.4 nM | – | – | – | – | – | – | – | – | –
20 | NS(=O)(=O)c1cccc(-c2ccnnc2)c1-c1nn[nH]n1 [Example 47, 3-pyridazin-4-yl-2-(2H-tetrazol-5-yl)benzenesulfonamide] | 5360 nM | 4160 nM | 0.7813 µM | >200 µM | 50 µM | 345 nM | – | – | – | – | – | – | – | – | –
21 | CN(C)S(=O)(=O)c1ccc(-c2cccc(S(N)(=O)=O)c2-c2nn[nH]n2)cc1 [Example 59, N~4~′,N~4~′-dimethyl-2-(2H-tetrazol-5-yl)biphenyl-3,4′-disulfonamide] | 95 nM | 36.1 nM | 2.344 µM | 200 µM | 6.25 µM | 4.38 nM | – | – | – | – | – | – | – | – | –
